Results published in patent US20190350964A1, “ANTI-CANCER COMPOUNDS AND USES THEREOF” (NATIONAL UNIVERSITY OF SINGAPORE, priority 2016, published 2019).

Key:
SNU449 = assay: MTT cytotoxicity test (GI50); format: cell-based; conditions: Homo sapiens, SNU-449; SNU449, cancer, liver; MTT 72 h
IMR90 = assay: MTT cytotoxicity test (GI50); format: cell-based; conditions: Homo sapiens, IMR-90; IMR90, normal, lung; MTT 72 h
[1] = molecular target: T1, Isoform 3 of Cleavage and polyadenylation specificity factor subunit 7 (Homo sapiens, UniProt Q8N684); assay: MS-CETSA in normal BJ cell lysates; format: binding; conditions: Uniprot Q8N684-3, lysate, 100 μM compound
T1 construct: After collecting data covering >8,000 proteins in lysates of normal BJ cells; endogenous in cells; host or cells: normal BJ cells, lysate
Description: (§1) Target identification was performed by cellular thermal shift assay (CETSA) coupled with quantitative mass spectrometry. In brief, normal BJ cells were lysed by combination of freeze/thaw and mechanical shearing with needle in buffer [50 mM HEPES (pH 7.5), 5 mM β-glycerophosphate, 0.1 mM Sodium Vanadate, 10 mM MgCl2, 1 mM TCEP and 1× Protease inhibitor Cocktail]. The cell debris was removed by centrifugation at 20,000 g for 20 min at 4° C. […] Each lysate was divided into 10 aliquots for heat treatment at the respective temperatures for 3 min in a 96-well thermocycler, followed by 3 min at 4° C. The lysate was centrifuged at 20,000 g for 20 min at 4° C. and the supernatant was transferred into microtubes for MS sample preparation.
(§2) After lysis, at least 100 μg of the protein (measured with a BCA assay) was subjected to reduction, denaturation and alkylation. Samples were subsequently incubated with sequencing grade LysC (Wako) and trypsin (Promega) for digestion overnight at 37° C. The digested samples were dried using a centrifugal vacuum evaporator, solubilized in 100 mM TEAB. […]
(§3) Proteins for which a low temperature plateau was not present were deleted using a cut off >0.85 for the average reading of the first three temperature points (in our experience proteins melting already at −37° C. are more prone to give false positives in a shift analysis).

NCC24 = assay: MTT cytotoxicity test (GI50); format: cell-based; conditions: Homo sapiens; NCC24, cancer, gastric; MTT 72 h
[2] = test system: Ras-driven glioma initiating cells (GICs); assay: Brain slice explants (orthotopically implanted ex vivo model); design: species or system mouse; conditions: 20 μM, 4 days
Description: Fifty thousand GICs were orthotopically implanted into the forebrain of wild-type mice, and at 7 days post-implantation, brain slice explants were established as previously described (Sampetrean, O. et al., Neoplasia 13: 784-791 (2011)). […] Images were acquired on an FV10i Olympus confocal microscope (Olympus) and tumor area was quantified by Nikon NIS-element software. Experiments were performed in triplicate. At the end of the experiment (Day 4), slices were fixed overnight in 4% paraformaldehyde, embedded in paraffin and then sectioned at a thickness of 4 μm. Deparaffinized sections were stained with rabbit polyclonal antibody against cleaved caspase 3 (Cell Signaling). Immune complexes were detected using Histofine (Nichirei Biosciences) and ImmPACTDAB (Vector Laboratories). All animal experiments were performed in accordance with the animal care guidelines of Keio University.

IST1 = assay: MTT cytotoxicity test (GI50); format: cell-based; conditions: Homo sapiens; IST1, cancer, gastric; MTT 72 h
[3] = molecular target: T2, Arsenite methyltransferase (Homo sapiens, UniProt Q9HBK9); assay: MS-CETSA in normal BJ cell lysates; format: binding; conditions: lysate, 100 μM compound
T2 construct: After collecting data covering >8,000 proteins in lysates of normal BJ cells; endogenous in cells; host or cells: normal BJ cells, lysate
Description: as §1, §2, §3

NCC19 = assay: MTT cytotoxicity test (GI50); format: cell-based; conditions: Homo sapiens; NCC19, cancer, gastric; MTT 72 h
transformed BJ cells [4] = assay: FACS analysis of the cell cycle (BrdU and PI double staining); format: cell-based, human; conditions: 2.5 μM, 48 h
Description: Cell death was assessed via Annexin V and/or PI (propidium iodide) staining according to the manufacturer's instructions (eBioscience). Cell growth arrest was assessed by direct measurement of DNA synthesis through incorporation of the nucleoside analog bromodeoxyuridine (BrdU). Briefly, BrdU (30 μM, Sigma-Aldrich) was added for 2 h before harvesting cells. Cells were subsequently stained with Pacific Blue-conjugated BrdU antibody (Invitrogen) for 1 h followed by PI staining. Stained cells were analyzed by MACSQuant (MACS). Three independent experiments were performed in triplicate. The percentage of Annexin V/PI- or BrdU-positive cells was quantified using Flow Jo software (Becton Dickinson). Where indicated, the combined activity of caspase-3/7 was determined using the caspase-Glo 3/7 Assay Kit (Promega) and normalized to the number of viable cells as determined by MTT assay.

NCC59 = assay: MTT cytotoxicity test (GI50); format: cell-based; conditions: Homo sapiens; NCC59, cancer, gastric; MTT 72 h
Pyridoxal kinase = molecular target: T3, Pyridoxal kinase (Homo sapiens, UniProt O00764); assay: MS-CETSA in normal BJ cell lysates; format: binding; conditions: lysate, 100 μM compound
T3 construct: After collecting data covering >8,000 proteins in lysates of normal BJ cells; endogenous in cells; host or cells: normal BJ cells, lysate
Description: as §1, §2, §3

RPE-1/hTert = assay: MTT cytotoxicity test (GI50); format: cell-based; conditions: Homo sapiens, normal, retina, MTT 72 h
transformed BJ cells [5] = assay: Time-lapse live-cell imaging and immunofluorescence of mitosis; format: cell-based, human; conditions: 2.5 μM
Description: For immunofluorescence analysis, cells grown on coverglass-bottom chamber slides (Lab-Tek) were fixed with 4% PFA (paraformaldehyde) for 15 min at 25° C. The fixed cells were permeabilized with 0.5% Triton X-100 and exposed to TBS containing 0.1% Triton X-100 and 2% BSA (AbDil). The following primary antibodies were diluted in PBS containing 1% BSA and 0.1% Triton X-100: anti-γ-tubulin (Sigma-Aldrich, #T6557; 1:1000) and anti-β-tubulin (Abcam, #ab18207; 1:2000). Isotype-specific secondary antibodies (1:500 dilution) coupled to Alexa Fluor 488, 594, or Cy5 (Molecular Probes) were used. Cells were counterstained with DAPI (Thermo Scientific). Images were acquired at RT with 3D-SIM mode using a Super Resolution Microscope (Nikon) equipped with an iXon EM+885 EMCCD camera (Andor) mounted on a Nikon Eclipse Ti-E inverted microscope with a CFI Apo TIRF (100×/1.40 oil) objective and processed with the NIS-Elements AR software. For time-lapse live-cell analysis, a Stage Top Incubator with Digital CO2 mixer (Tokai) was used, and images were acquired at 37° C.

MDA-MB-231 = assay: MTT cytotoxicity test (GI50); format: cell-based; conditions: Homo sapiens; MDA-MB-231, cancer, breast; MTT 72 h

T2 sequence (Q9HBK9 whole entry): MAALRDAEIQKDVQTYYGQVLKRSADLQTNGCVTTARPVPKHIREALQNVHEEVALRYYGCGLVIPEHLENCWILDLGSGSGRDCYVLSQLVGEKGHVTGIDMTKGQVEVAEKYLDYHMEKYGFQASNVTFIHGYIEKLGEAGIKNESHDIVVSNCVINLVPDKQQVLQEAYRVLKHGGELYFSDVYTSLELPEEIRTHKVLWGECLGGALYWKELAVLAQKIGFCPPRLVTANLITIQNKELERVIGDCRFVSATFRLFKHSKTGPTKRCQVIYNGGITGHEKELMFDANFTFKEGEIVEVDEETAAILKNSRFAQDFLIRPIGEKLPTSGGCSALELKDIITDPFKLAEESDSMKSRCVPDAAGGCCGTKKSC
T1 sequence (Q8N684 1-514 isoform Q8N684-3): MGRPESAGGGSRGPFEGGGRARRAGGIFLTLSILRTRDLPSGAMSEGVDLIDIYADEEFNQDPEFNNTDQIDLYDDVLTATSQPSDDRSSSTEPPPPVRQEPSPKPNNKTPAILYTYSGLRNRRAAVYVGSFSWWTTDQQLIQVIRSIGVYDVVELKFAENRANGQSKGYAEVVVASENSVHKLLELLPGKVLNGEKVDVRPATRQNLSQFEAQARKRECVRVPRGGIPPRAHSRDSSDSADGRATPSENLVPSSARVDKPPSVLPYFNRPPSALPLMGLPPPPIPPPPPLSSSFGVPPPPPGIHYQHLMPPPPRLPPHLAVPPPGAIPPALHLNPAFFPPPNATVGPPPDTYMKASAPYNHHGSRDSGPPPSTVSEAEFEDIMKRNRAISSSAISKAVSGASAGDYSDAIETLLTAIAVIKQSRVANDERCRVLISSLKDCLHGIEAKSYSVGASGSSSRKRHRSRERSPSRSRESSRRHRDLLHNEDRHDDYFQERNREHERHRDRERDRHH
T3 sequence (O00764 whole entry): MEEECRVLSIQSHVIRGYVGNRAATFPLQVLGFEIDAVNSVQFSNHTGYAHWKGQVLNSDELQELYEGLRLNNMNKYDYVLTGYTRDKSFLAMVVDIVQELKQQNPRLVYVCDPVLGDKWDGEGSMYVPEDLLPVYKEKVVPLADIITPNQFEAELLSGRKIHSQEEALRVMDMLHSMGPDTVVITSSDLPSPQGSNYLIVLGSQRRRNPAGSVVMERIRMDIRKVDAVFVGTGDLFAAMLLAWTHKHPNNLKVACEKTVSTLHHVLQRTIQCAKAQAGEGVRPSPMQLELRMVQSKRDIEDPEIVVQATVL

Q: What does the source list for `N#C/C(=C\c1cccc2cnccc12)c1c[nH]c2ccccc12` [a131, (Z)-2-(1H-indol-3-yl)-3-(5-isoquinolyl)prop-2-enenitrile]?
A: GI50 (SNU449): 2.3 µM; GI50 (IMR90): 5.8 µM; ED score [1]: 0.3008; mean Delta Tm ([1]; in °C (unit assumed)): 1.653; GI50 (NCC24): 1.2 µM; apoptosis (cleaved caspase-3) in tumor versus surrounding normal tissue [2]: induced apoptosis only in tumors, but not surrounding normal tissues; tumor growth of GICs in brain explants (Day 4/Day 0) [2]: significantly suppressed growth; GI50 (IST1): 2.2 µM; ED score [3]: 0.6214; ΔTm at 100 µM ([3]; read-out: mean Delta Tm): 4.88 °C; GI50 (NCC19): 4.6 µM; aneuploidy (>4N) (transformed BJ cells [4]): significantly induced aneuploidy (>4N) only in transformed BJ cells; cell death (<2N, subG1) (transformed BJ cells [4]; transformed versus normal BJ cells): dramatically induced cell death (<2N) through apoptosis; GI50 (NCC59): 0.9 µM; ED score (Pyridoxal kinase): 0.4486; ΔTm at 100 µM (Pyridoxal kinase; read-out: mean Delta Tm): 2.01 °C; GI50 (RPE-1/hTert): 5.2 µM; mitotic arrest (time-lapse analysis) (transformed BJ cells [5]): immediately induced mitotic arrest in transformed BJ cells; centrosome de-clustering and multipolar mitotic spindles (transformed BJ cells [5]; 32 h): caused de-clustered centrosomes and multipolar mitotic-spindles in transformed BJ; GI50 (MDA-MB-231): 1.1 µM
